This test addresses human Factor Xa (Homo sapiens, UniProt P00742). Put plainly: Factor Xa assay. The test is classed as biochemical. Also on record: This complex converts factor X to Xa; purchased Hematologic Technologies. Conditions: 3.3 nM Xa, S-2222 0.5 mM; read-out: binding affinity to serine proteases: Xa (constant of inhibition Ki). As for the experimental part: These procedures are used to determine the constant of inhibition (Ki) for a sample compound of the invention.
Coagulation Factor: human Factor Xa, Thrombin, or Plasma Kallikrein (Hematologic Technologies) Dilute to 0.45 μg/mL (9.8 nM) in assay buffer.
Substrate: S-2222, S2366 or S2302—(See below—Chromogenix Inc,) Reconstitute at 5 mM in H2O. Dilute to 1.5 mM in assay buffer prior to use.
Samples: Dilute samples to 3% DMSO in assay buffer.
1. Add 50 μL sample to each well.
2. Add 50 μL appropriately diluted coagulation factor to each well.
3. Incubate for 5 minutes at room temperature with gentle agitation.
4. Add 50 μL appropriately diluted substrate to each well.
5. Agitate plate for 20-25 sec.
6. Monitor absorbance at 405 nm every 10 sec for a total of 5 minutes at room temperature.
7. Calculate Vmax over 10 points.

The term Ki denotes the dissociation constant of the complex between target and ligand, obtained from inhibition or displacement.

Sequence of human Factor Xa (P00742 235-488 limits assumed): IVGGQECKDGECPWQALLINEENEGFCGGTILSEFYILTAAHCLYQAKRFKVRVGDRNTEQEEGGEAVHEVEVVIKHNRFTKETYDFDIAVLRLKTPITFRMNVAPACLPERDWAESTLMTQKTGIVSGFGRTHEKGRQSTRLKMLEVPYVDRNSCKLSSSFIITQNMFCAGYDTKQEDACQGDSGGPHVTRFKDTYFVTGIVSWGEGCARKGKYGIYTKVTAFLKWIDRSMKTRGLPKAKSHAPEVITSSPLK
Sequence of human Factor Xa (P00742 41-179 limits assumed): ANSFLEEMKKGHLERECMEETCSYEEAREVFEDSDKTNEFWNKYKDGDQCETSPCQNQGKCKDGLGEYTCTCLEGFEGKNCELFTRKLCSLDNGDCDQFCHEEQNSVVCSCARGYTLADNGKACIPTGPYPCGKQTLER

Consider `C[C@@H](NC(=O)[C@@H]1C[C@@H](Oc2cccc(C(=N)N)c2)CN1)c1ccccc1` [compound 26], for which the Ki is 114 µM.

Source of the values: patent publication US6410733B1, “Amidine inhibitors of serine proteases” (Genentech, Inc., priority 2000, dated 2002).
